Earlier results, collected in patent US6806274B1, “Quinazoline derivatives” (AstraZeneca UK Limited, priority 1999, dated 2004).

Biological target: EGF RTK (Homo sapiens, UniProt P00533)
Settings: Bioorganic & Medicinal Chemistry Letters, 1997, 7, 2723-2728

Sequence of EGF RTK (P00533 25-1210): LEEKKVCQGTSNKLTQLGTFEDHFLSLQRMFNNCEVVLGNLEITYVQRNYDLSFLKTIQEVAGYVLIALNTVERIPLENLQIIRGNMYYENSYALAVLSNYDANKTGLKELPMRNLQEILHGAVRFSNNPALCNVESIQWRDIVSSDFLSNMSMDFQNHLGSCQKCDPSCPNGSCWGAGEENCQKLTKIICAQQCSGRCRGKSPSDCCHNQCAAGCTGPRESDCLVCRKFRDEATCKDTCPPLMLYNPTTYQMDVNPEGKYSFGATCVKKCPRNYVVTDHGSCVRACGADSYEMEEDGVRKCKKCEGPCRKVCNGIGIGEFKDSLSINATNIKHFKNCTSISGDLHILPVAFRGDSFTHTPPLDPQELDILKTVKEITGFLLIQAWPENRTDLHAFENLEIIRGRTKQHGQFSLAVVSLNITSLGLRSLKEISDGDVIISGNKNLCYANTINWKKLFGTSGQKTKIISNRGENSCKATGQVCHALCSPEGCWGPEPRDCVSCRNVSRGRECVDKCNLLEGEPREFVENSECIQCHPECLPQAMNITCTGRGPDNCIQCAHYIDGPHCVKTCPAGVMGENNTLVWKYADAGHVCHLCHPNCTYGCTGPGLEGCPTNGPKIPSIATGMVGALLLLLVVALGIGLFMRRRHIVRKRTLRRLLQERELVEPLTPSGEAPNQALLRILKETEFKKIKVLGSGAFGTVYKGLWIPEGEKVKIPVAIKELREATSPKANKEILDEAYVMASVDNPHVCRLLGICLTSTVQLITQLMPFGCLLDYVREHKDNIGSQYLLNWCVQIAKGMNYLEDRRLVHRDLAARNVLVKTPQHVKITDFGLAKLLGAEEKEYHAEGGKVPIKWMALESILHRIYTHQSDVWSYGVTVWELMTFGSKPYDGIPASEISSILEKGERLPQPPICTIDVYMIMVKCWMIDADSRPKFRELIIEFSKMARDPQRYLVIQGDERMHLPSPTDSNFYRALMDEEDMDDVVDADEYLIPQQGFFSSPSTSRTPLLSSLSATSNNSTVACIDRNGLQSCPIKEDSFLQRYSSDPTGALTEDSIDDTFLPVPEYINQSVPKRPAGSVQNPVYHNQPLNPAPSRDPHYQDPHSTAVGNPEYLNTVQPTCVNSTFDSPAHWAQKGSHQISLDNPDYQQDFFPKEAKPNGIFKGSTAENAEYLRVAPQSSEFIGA

## COc1cc2ncnc(NC(=O)Nc3ccccc3)c2cc1OC [1-(6,7-dimethoxyquinazolin-4-yl)-3-phenylurea]
  activity as an EGF RTK inhibitor: inactive
